Patent US20080299130A1, “Methods And Compositions For The Treatment Of Ocular Neovascularization” (UNIVERSITY OF KENTUCKY RESEARCH FOUNDATION, priority 2004, published 2008)

Tested on: laser-induced CNV
Assay: Laser-induced choroidal neovascularization (CNV) volume after intravitreous injection
Type: in vivo, mouse
Description: Laser photocoagulation (532 nm, 200 mW, 100 ms, 75 μm; OcuLight GL, Iridex, Mountain View, Calif.) was performed on both eyes of each animal by a single individual masked to genetic identity. Laser spots (volume studies: 3/eye; angiography: 4/eye; protein analyses/flow cytometry: 12/eye) were applied in a standardized fashion around the optic nerve, using a slit lamp delivery system and a cover slip as a contact lens. The morphological endpoint of the laser injury was the appearance of a cavitation bubble, a sign thought to correlate with the disruption of Bruch's membrane.
Two weeks after laser injury, eyes were enucleated and fixed with 4% paraformaldehyde (PFA) for 30 minutes at 4° C. […]
Flat mounts were examined with a scanning laser confocal microscope (TCS SP, Leica, Heidelberg, Germany). […] The area of CNV-related fluorescence was measured by computerized image analysis with the microscope software (TCS SP; Leica). […]
Because the probability of each laser lesion developing CNV is influenced by the group to which it belongs, the mouse, the eye, and the laser spot, the mean lesion volumes were compared using a linear mixed model with a split plot repeated measures design, as previously described (Sakurai, et al., (2003), Invest Opthalmol Vis Sci 44, 2743-2749; Sakurai et al., (2003), Invest Opthalmol Vis Sci 44, 3578.3585). […] Statistical significance was determined at the 0.05 level. […]

Recombinant MCP-1: recombinant mouse MCP-1 protein (Ccl-2)
Effect on CNV (MCP-1 knock out mice (FIG. 5, FIG. 6)): restores CNV
CNV restored, % of control (recombinant MCP-1 0.55 ng given with anti-VEGF-A antibody, n=6, P=0.82): 95.7±13.0 % of control
